PubChem BioAssay (NCI)
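Interpolation was linear, between the two tested concentrations surrounding the appropriate level; five concentrations were tested over 48 hours in 96-well plates. TGI: total growth inhibition.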

What was measured:
Experiment in all cases: growth of human tumour cells (NCI), 48 h
SR leukemia = system: SR leukemia
HL-60(TB) leukemia = system: HL-60(TB) leukemia
NCI-H226 lung = system: NCI-H226 lung
SF-268 CNS = system: SF-268 CNS
MALME-3M melanoma = system: MALME-3M melanoma
NCI-H460 lung = system: NCI-H460 lung
SW-620 colon = system: SW-620 colon
A498 renal = system: A498 renal
OVCAR-5 ovarian = system: OVCAR-5 ovarian
NCI-H522 lung = system: NCI-H522 lung
TK-10 renal = system: TK-10 renal
MOLT-4 leukemia = system: MOLT-4 leukemia
SF-539 CNS = system: SF-539 CNS
K-562 leukemia = system: K-562 leukemia
A549 NSCLC = system: A549 NSCLC
HT29 colon = system: HT29 colon
HOP-92 NSCLC = system: HOP-92 NSCLC
SNB-75 CNS = system: SNB-75 CNS
KM20L2 colon = system: KM20L2 colon
OVCAR-8 ovarian = system: OVCAR-8 ovarian
XF 498 CNS = system: XF 498 CNS
SK-OV-3 ovarian = system: SK-OV-3 ovarian
UACC-62 melanoma = system: UACC-62 melanoma
HOP-62 NSCLC = system: HOP-62 NSCLC
SK-MEL-2 melanoma = system: SK-MEL-2 melanoma
M14 melanoma = system: M14 melanoma
EKVX NSCLC = system: EKVX NSCLC
UO-31 renal = system: UO-31 renal
CAKI-1 renal = system: CAKI-1 renal
786-0 renal = system: 786-0 renal
SN12C renal = system: SN12C renal
UACC-257 melanoma = system: UACC-257 melanoma
IGROV1 ovarian = system: IGROV1 ovarian
SNB-19 CNS = system: SNB-19 CNS
COLO 205 colon = system: COLO 205 colon
DLD-1 colon = system: DLD-1 colon
HCT-116 colon = system: HCT-116 colon
SF-295 CNS = system: SF-295 CNS
RPMI-8226 leukemia = system: RPMI-8226 leukemia
DMS 114 small cell lung = system: DMS 114 small cell lung
HOP-18 NSCLC = system: HOP-18 NSCLC
KM12 colon = system: KM12 colon
NCI-H23 lung = system: NCI-H23 lung
U251 CNS = system: U251 CNS
DMS 273 small cell lung = system: DMS 273 small cell lung
RXF 393 renal = system: RXF 393 renal
SK-MEL-5 melanoma = system: SK-MEL-5 melanoma
LXFL 529 NSCLC = system: LXFL 529 NSCLC
OVCAR-4 ovarian = system: OVCAR-4 ovarian
OVCAR-3 ovarian = system: OVCAR-3 ovarian
M19-MEL melanoma = system: M19-MEL melanoma
CCRF-CEM leukemia = system: CCRF-CEM leukemia
LOX IMVI melanoma = system: LOX IMVI melanoma
HCT-15 colon = system: HCT-15 colon
RXF-631 renal = system: RXF-631 renal
SK-MEL-28 melanoma = system: SK-MEL-28 melanoma
HCC-2998 colon = system: HCC-2998 colon
ACHN renal = system: ACHN renal
SNB-78 CNS = system: SNB-78 CNS

Compound: O=C1C(c2ccccc2)=C(c2ccccc2)C(c2ccc(-c3ccc(C4=C(c5ccccc5)C(=O)C(c5ccccc5)=C4c4ccccc4)cc3)cc2)=C1c1ccccc1
- TGI (SR leukemia): > 100 µM
- TGI (HL-60(TB) leukemia): > 100 µM
- TGI (NCI-H226 lung): > 100 µM
- TGI (SF-268 CNS): > 100 µM
- TGI (MALME-3M melanoma): > 100 µM
- TGI (NCI-H460 lung): > 100 µM
- TGI (SW-620 colon): > 100 µM
- TGI (A498 renal): > 100 µM
- TGI (OVCAR-5 ovarian): > 100 µM
- TGI (NCI-H522 lung): > 100 µM
- TGI (TK-10 renal): > 100 µM
- TGI (MOLT-4 leukemia): > 100 µM
- TGI (SF-539 CNS): > 100 µM
- TGI (K-562 leukemia): > 100 µM
- TGI (A549 NSCLC): > 100 µM
- TGI (HT29 colon): > 100 µM
- TGI (HOP-92 NSCLC): > 100 µM
- TGI (SNB-75 CNS): > 100 µM
- TGI (KM20L2 colon): > 100 µM
- TGI (OVCAR-8 ovarian): > 100 µM
- TGI (XF 498 CNS): > 100 µM
- TGI (SK-OV-3 ovarian): > 100 µM
- TGI (UACC-62 melanoma): > 100 µM
- TGI (HOP-62 NSCLC): > 100 µM
- TGI (SK-MEL-2 melanoma): > 100 µM
- TGI (M14 melanoma): > 100 µM
- TGI (EKVX NSCLC): > 100 µM
- TGI (UO-31 renal): > 100 µM
- TGI (CAKI-1 renal): > 100 µM
- TGI (786-0 renal): > 100 µM
- TGI (SN12C renal): > 100 µM
- TGI (UACC-257 melanoma): > 100 µM
- TGI (IGROV1 ovarian): > 100 µM
- TGI (SNB-19 CNS): > 100 µM
- TGI (COLO 205 colon): > 100 µM
- TGI (DLD-1 colon): > 100 µM
- TGI (HCT-116 colon): > 100 µM
- TGI (SF-295 CNS): > 100 µM
- TGI (RPMI-8226 leukemia): > 100 µM
- TGI (DMS 114 small cell lung): > 100 µM
- TGI (HOP-18 NSCLC): > 100 µM
- TGI (KM12 colon): > 100 µM
- TGI (NCI-H23 lung): > 100 µM
- TGI (U251 CNS): > 100 µM
- TGI (DMS 273 small cell lung): > 100 µM
- TGI (RXF 393 renal): > 100 µM
- TGI (SK-MEL-5 melanoma): > 100 µM
- TGI (LXFL 529 NSCLC): > 100 µM
- TGI (OVCAR-4 ovarian): > 100 µM
- TGI (OVCAR-3 ovarian): > 100 µM
- TGI (M19-MEL melanoma): > 100 µM
- TGI (CCRF-CEM leukemia): > 100 µM
- TGI (LOX IMVI melanoma): > 100 µM
- TGI (HCT-15 colon): > 100 µM
- TGI (RXF-631 renal): > 100 µM

Compound: CC1(C)CC(=O)C(C(=O)C(=O)NC2=C(Cl)C(=O)c3ccccc3C2=O)C(=O)C1
- TGI (SR leukemia): > 100 µM
- TGI (HL-60(TB) leukemia): 47.2 µM
- TGI (NCI-H226 lung): > 100 µM
- TGI (SF-268 CNS): > 100 µM
- TGI (MALME-3M melanoma): > 100 µM
- TGI (NCI-H460 lung): > 100 µM
- TGI (SW-620 colon): > 100 µM
- TGI (A498 renal): > 100 µM
- TGI (OVCAR-5 ovarian): > 100 µM
- TGI (NCI-H522 lung): 91.6 µM
- TGI (TK-10 renal): > 100 µM
- TGI (MOLT-4 leukemia): 94.4 µM
- TGI (SF-539 CNS): > 100 µM
- TGI (K-562 leukemia): > 100 µM
- TGI (A549 NSCLC): > 100 µM
- TGI (HT29 colon): > 100 µM
- TGI (SNB-75 CNS): > 100 µM
- TGI (KM20L2 colon): > 100 µM
- TGI (SK-MEL-28 melanoma): > 100 µM
- TGI (OVCAR-8 ovarian): > 100 µM
- TGI (HCC-2998 colon): > 100 µM
- TGI (XF 498 CNS): > 100 µM
- TGI (SK-OV-3 ovarian): > 100 µM
- TGI (UACC-62 melanoma): > 100 µM
- TGI (HOP-62 NSCLC): > 100 µM
- TGI (SK-MEL-2 melanoma): > 100 µM
- TGI (M14 melanoma): > 100 µM
- TGI (EKVX NSCLC): > 100 µM
- TGI (UO-31 renal): > 100 µM
- TGI (CAKI-1 renal): > 100 µM
- TGI (786-0 renal): > 100 µM
- TGI (SN12C renal): > 100 µM
- TGI (UACC-257 melanoma): > 100 µM
- TGI (IGROV1 ovarian): > 100 µM
- TGI (SNB-19 CNS): > 100 µM
- TGI (COLO 205 colon): > 100 µM
- TGI (DLD-1 colon): > 100 µM
- TGI (HCT-116 colon): > 100 µM
- TGI (ACHN renal): > 100 µM
- TGI (SF-295 CNS): > 100 µM
- TGI (RPMI-8226 leukemia): > 100 µM
- TGI (DMS 114 small cell lung): > 100 µM
- TGI (HOP-18 NSCLC): > 100 µM
- TGI (KM12 colon): > 100 µM
- TGI (NCI-H23 lung): > 100 µM
- TGI (U251 CNS): > 100 µM
- TGI (RXF 393 renal): > 100 µM
- TGI (SK-MEL-5 melanoma): > 100 µM
- TGI (LXFL 529 NSCLC): > 100 µM
- TGI (OVCAR-4 ovarian): > 100 µM
- TGI (OVCAR-3 ovarian): > 100 µM
- TGI (M19-MEL melanoma): > 100 µM
- TGI (SNB-78 CNS): > 100 µM
- TGI (CCRF-CEM leukemia): > 100 µM
- TGI (LOX IMVI melanoma): > 100 µM
- TGI (HCT-15 colon): > 100 µM
- TGI (RXF-631 renal): > 100 µM

Compound: COC(=O)C12C3C4C1C1C2C3C41C(=O)O (stereo not drawn)
- TGI (HL-60(TB) leukemia): > 100 µM
- TGI (NCI-H226 lung): > 100 µM
- TGI (SF-268 CNS): > 100 µM
- TGI (MALME-3M melanoma): > 100 µM
- TGI (NCI-H460 lung): > 100 µM
- TGI (SW-620 colon): > 100 µM
- TGI (A498 renal): > 100 µM
- TGI (OVCAR-5 ovarian): > 100 µM
- TGI (TK-10 renal): > 100 µM
- TGI (MOLT-4 leukemia): > 100 µM
- TGI (SF-539 CNS): > 100 µM
- TGI (K-562 leukemia): > 100 µM
- TGI (A549 NSCLC): > 100 µM
- TGI (HT29 colon): > 100 µM
- TGI (HOP-92 NSCLC): > 100 µM
- TGI (KM20L2 colon): > 100 µM
- TGI (SK-MEL-28 melanoma): > 100 µM
- TGI (OVCAR-8 ovarian): > 100 µM
- TGI (HCC-2998 colon): > 100 µM
- TGI (XF 498 CNS): > 100 µM
- TGI (SK-OV-3 ovarian): > 100 µM
- TGI (UACC-62 melanoma): > 100 µM
- TGI (HOP-62 NSCLC): > 100 µM
- TGI (M14 melanoma): > 100 µM
- TGI (EKVX NSCLC): > 100 µM
- TGI (UO-31 renal): > 100 µM
- TGI (CAKI-1 renal): > 100 µM
- TGI (786-0 renal): > 100 µM
- TGI (SN12C renal): > 100 µM
- TGI (UACC-257 melanoma): > 100 µM
- TGI (IGROV1 ovarian): > 100 µM
- TGI (SNB-19 CNS): > 100 µM
- TGI (COLO 205 colon): > 100 µM
- TGI (DLD-1 colon): > 100 µM
- TGI (ACHN renal): > 100 µM
- TGI (SF-295 CNS): > 100 µM
- TGI (RPMI-8226 leukemia): > 100 µM
- TGI (DMS 114 small cell lung): > 100 µM
- TGI (HOP-18 NSCLC): > 100 µM
- TGI (NCI-H23 lung): > 100 µM
- TGI (U251 CNS): > 100 µM
- TGI (RXF 393 renal): > 100 µM
- TGI (SK-MEL-5 melanoma): > 100 µM
- TGI (LXFL 529 NSCLC): > 100 µM
- TGI (OVCAR-4 ovarian): > 100 µM
- TGI (OVCAR-3 ovarian): > 100 µM
- TGI (M19-MEL melanoma): > 100 µM
- TGI (SNB-78 CNS): > 100 µM
- TGI (CCRF-CEM leukemia): > 100 µM
- TGI (HCT-15 colon): > 100 µM
- TGI (RXF-631 renal): > 100 µM
